Test results as given in article PMC7555119, “Characterization of Novel Synthetic Polyphenols: Validation of Antioxidant and Vasculoprotective Activities” (Antioxidants, 2020).

Columns and labels:
[1] = ABTS radical cation scavenging assay
Experimental: The 2,2′-azino-bis (3-ethylbenzothiazoline-6-sulfonic acid) diammonium salt (ABTS) assay was performed according to Re et al. and modified by Oki et al. for its use in microplates. Samples were diluted in methanol. An ABTS^•+ stock solution was prepared by adding 44 μL of potassium persulfate (140 mmol/L) to a 2.5 mL ABTS^•+ aqueous solution (7 mmol/L). The working solution of the radical ABTS^+ was prepared by diluting the stock solution 1:75 (v/v) in a sodium phosphate buffer (5 mmol/L, pH 7.4) to obtain an absorbance value of 0.7±0.02 at 734 nm. Samples (30 μL) were added to 270 μL of the working solution of ABTS^•+ in a microplate. Absorbance was measured at 734 nm and 30 °C for 20 min, every 5 min in a Synergy HT plate spectrophotometer (Biotek Instruments, Winoosky, VT, USA). A calibration curve was made with Trolox (20–250 μM). All samples were analyzed in triplicate. Results were expressed in μmol TE/μmol of pure compound, as for the ORAC assays.

[2] = Stability in aqueous media (H2O/acetonitrile 80:20, HPLC-MS); format: physicochemical
Source text: The solutions were checked by HPLC-MS at regular intervals of time for 60 days. […] The rest of the compounds suffered progressive degradation, with complete disappearance from the solution after 10 or 20 days. The most unstable polyphenol derivatives were 4 and 10 (Figure S1), having both two p-dihydroxy substitutions in the phenyl rings, which points to the rapid and easy oxidation to the p-hydroquinone. From the four compounds with three phenyl rings, only one was stable in aqueous solution (17).

With `O=C(Nc1ccc(O)cc1)N(c1ccc(O)cc1)c1ccc(O)cc1` [Compound 17, N,N-bis(4-Hydroxyphenyl)-N′-(4′-hydroxyphenyl)urea] the ABTS [1] was 3.57 ± 0.00 µmol of trolox/µmol of pure compound, the “stability in aqueous media” value ([2]; H2O/acetonitrile (80:20%), room temperature, checked for 60 days) was “sufficiently stable” and the “Aqueous Stability (%)” value ([2]; remaining pure compound (HPLC) after two months at room temperature in aqueous solution (+20% acetonitrile)) was 93%.
